What was measured:
[1] = tested on: HIV-1 LTR-driven promoter; assay: LTR-driven gene expression; conditions: for Reversal of lovastatin-induced increase in LTR-driven transcription: supplementation with lovastatin
Protocol: LTR-driven gene expression. Jurkat cells transfected with pLTR-luc (Schwartz, O. et al (1990) Gene 88:197-205), pcDNA-tat and the promoterless renilla luciferase plasmid were treated at 4 h post-transfection with inhibitors and metabolites at the indicated concentrations (see HIV-1. infections section). Relative luciferase units (RLU) were calculated as the ratio between firefly and renilla activity after 48 h.

[2] = tested on: replication-defective NL4-3 virus pseudotyped with HIV-1ADA envelope; format: cell-based; conditions: for Entry of R5-pseudotyped virus: MT2-CCR5 cells treated with 10 μM compound, 48 h, FIG. 6A, 7B
[3] = tested on: Rho; assay: Rho activation assay; format: cell-based; conditions: FIG. 8C
Protocol: Rho and Rac activation assay. […] At times indicated, cells were washed with ice-cold PBS and lysates prepared using Rho or Rac activation assay kits (Upstate Biotechnology). GTP-bound Rho was precipitated with RBD-agarose beads and GTP-Rac with PBD-agarose beads. Activated Rho or Rac were measured in pellets by Western blot with specific antibodies, using crude cell extracts for normalization. Densitometry was performed using NIH Image software.

[4] = tested on: gp120 with the HIV-1 receptors CD4 and CXCR4; assay: gp120-induced patching; conditions: for Restoration of patch size and gp120-CXCR4 co-localization in lovastatin-treated cells: addition to lovastatin-treated cells
[5] = tested on: replication-defective NL4-3 virus pseudotyped with VSV envelope; format: cell-based, vesicular stomatitis virus
[6] = tested on: HIV-1-pseudotyped virus produced by HEK 293T cells; format: cell-based
[7] = tested on: VSV-G-pseudotyped virus produced by HEK 293T cells; format: cell-based, vesicular stomatitis virus
[8] = tested on: HIV-1 NL4-3; assay: Murine SCID-hu-PBMC model of HIV-1 infection; format: in vivo, CB.17 SCID/SCID mice
[9] = tested on: grafted human PBMC; conditions: mouse, in vivo
[10] = tested on: HIV-1; assay: Lovastatin treatment of HIV-1-infected patients; format: in vivo, human; conditions: Table I
[11] = tested on: R5 (BaL) HIV-1 strain; assay: HIV-1 infection of PHA-activated human PBMC, p24 antigen, R5 strain; format: cell-based
Protocol: (§1) Treated PBMC were incubated with NL4-3 or BaL viral stocks (1 or 10 ng p24 antigen/10^6 cells; 3 h, 37° C.). Cell-free supernatants were collected daily from cultured cells (0.5×10^6/ml) and tested for p24 antigen (Coulter).

[12] = tested on: MT2-CCR5 cells; assay: Cell cholesterol mass determination; conditions: lovastatin-treated MT2-CCR5 cells; FIG. 7C
[13] = tested on: X4-pseudotyped replication-defective HIV-1 NL4-3 variant; format: cell-based; conditions: 10 μM lovastatin; not shown
[14] = tested on: X4 (NL4-3) HIV-1 strain; assay: HIV-1 infection of PHA-activated human PBMC, p24 antigen, X4 strain; format: cell-based
Protocol: as §1

[15] = tested on: Gag; conditions: cells expressing the peptide
[16] = tested on: Luc-Ada viral particles; assay: Production of Luc-Ada viral particles in cells expressing raft-targeted protease peptide; conditions: cells expressing the peptide; FIG. 8B as printed
[17] = lovastatin-treated PBMC, FIG. 8A

Which results are given for CC(C)=CCC/C(C)=C/CC/C(C)=C/COP(=O)(O)OP(=O)(O)O [FPP, famesylpyrophosphate]?
Reversal of lovastatin-induced increase in LTR-driven transcription ([1]; MT2-CCR5 cells, FIG. 7D): not; Reversal of lovastatin-induced inhibition of HIV-1 entry [2]: not

CC(C)=CCC/C(C)=C/CC/C(C)=C/CC/C(C)=C/COP(=O)(O)OP(=O)(O)O [GGPP, geranylgeranylpyrophosphate] was tested. Which “Reversal of lovastatin-induced increase in LTR-driven transcription” value ([1]; MT2-CCR5 cells, FIG. 7D) did it give?
The value was “reversed”.

What about the “Reversal of lovastatin-induced inhibition of HIV-1 entry” value [2] of the same compound?
Its value is “reversed”.

What about the “Reversal of lovastatin inhibition of HIV-1-induced Rho activation” value ([3]; co-incubation with lovastatin) of the same compound?
The value was “reversed”.

How did the “Reversal of lovastatin-induced increase in LTR-driven transcription” value ([1]; MT2-CCR5 cells, FIG. 7D) turn out when CC(C)CCC[C@@H](C)[C@H]1CC[C@H]2[C@@H]3CC=C4C[C@@H](O)CC[C@]4(C)[C@H]3CC[C@]12C [cholesterol] was run?
The value was “not”.

What about the “Restoration of patch size and gp120-CXCR4 co-localization in lovastatin-treated cells” value ([4]; FIG. 8A) of the same compound?
The value was “not”.

And the “Reversal of lovastatin-induced inhibition of HIV-1 entry” value [2]?
The value was “not”.

COC(=O)[C@H](CCSC)NC(=O)c1ccc(NC[C@@H](N)CS)cc1-c1ccccc1 [farnesyl transferase inhibitor] was tested. Which “Entry of VSV-pseudotyped virus” value [5] did it give?
Its value is “did not affect”.

And the “Entry of R5-pseudotyped virus” value [2]?
Its value is “not”.

Which results are given for COC(=O)[C@H](CC(C)C)NC(=O)c1ccc(NC[C@@H](N)CS)cc1-c1ccccc1 [geranylgeranyl transferase inhibitor]?
HIV transcription (LTR-driven) ([1]; MT2-CCR5 cells, FIG. 7D): increased; Entry of VSV-pseudotyped virus [5]: did not affect; Entry of R5-pseudotyped virus [2]: inhibited

Which “HIV-1 LTR-driven promoter activity” value ([1]; Jurkat cells, FIG. 6C) does the source give for CC[C@H](C)C(=O)O[C@H]1C[C@@H](C)C=C2C=C[C@H](C)[C@H](CC[C@@H]3C[C@@H](O)CC(=O)O3)[C@H]21 [lovastatin] here?
Its value is “increased”.

And the HIV-1-pseudotyped viral production [6]?
Its HIV-1-pseudotyped viral production is “reduced”.

What about the “gp120 binding to CD4” value ([4]; lovastatin-treated PBMC) of the same compound?
The value was “did not affect”.

And the “Co-localization between gp120 and CXCR4” value [4, 17]?
The value was “drastically reduced”.

And the “gp120 patch size vs untreated cells” value [4, 17]?
Its value is “smaller gp120 patches”.

What about the “Entry of R5-pseudotyped virus” value [2] of the same compound?
Its value is “inhibited entry”.

And the VSV-G-pseudotyped viral production [7]?
Its VSV-G-pseudotyped viral production is “not that of VSV-G-pseudotyped viruses”.

What about the “Virus rescue by co-culture of peritoneal cells with PHA-activated human PBMC” value ([8]; cells from two mice with undetectable viral RNA) of the same compound?
The value was “did not rescue virus”.

What about the “Mice with undetectable viral RNA in plasma” value ([8]; lovastatin i.p. 5 mg/kg every three days) of the same compound?
The value was 4 of 10.

And the “Mean viral load (plasma HIV-1 RNA)” value ([8]; lovastatin i.p. 5 mg/kg every three days, one week post-infection, vs vehicle, FIG. 5C)?
Its value is “significantly reduced”.

And the “CD4+ T cell counts vs controls” value ([8]; one week post-infection)?
Its value is “higher”.

What about the “Number of labeled cells or labeling intensity” value [9] of the same compound?
The value was “No difference”.

What about the “Serum viral RNA loads” value ([10]; six A1 stage non-HAART patients, 40 mg/day oral, one month, sole therapy) of the same compound?
The value was “clear reduction”.

What about the “Viral load after discontinuation of treatment” value ([10]; three months after termination of treatment) of the same compound?
Its value is “rebound”.

And the “HIV-1 replication (p24 antigen production)” value ([11]; PBMC pretreated 48 h with 10 μM lovastatin, R5 (BaL)-infected cultures, FIG. 5A)?
The value was “reduced p24 antigen production”.

What about the Cholesteryl ester mass [12] of the same compound?
Its Cholesteryl ester mass is “drastically reduced”.

And the “Free cholesterol levels vs untreated cells” value [12]?
Its value is “comparable”.

And the “HIV-1-induced Rho activation” value ([3]; MT2-CCR5 cells incubated with lovastatin prior to virus exposure)?
The value was “inhibited”.

What about the “Entry of X4-pseudotyped virus” value [13] of the same compound?
Its value is “inhibited entry”.

What about the “HIV-1 replication (p24 antigen production)” value ([14]; PBMC pretreated 48 h with 10 μM lovastatin, X4 (NL4-3)-infected cultures, FIG. 5A) of the same compound?
The value was “reduced p24 antigen production”.

Which results are given for L-mevalonate?
Reversal of lovastatin-induced increase in LTR-driven promoter activity ([1]; Jurkat cells, co-incubation with lovastatin, FIG. 6C): reversed; Reversal of lovastatin-induced reduction of viral production ([6]; co-incubation with lovastatin, FIG. 6B): reversed; Restoration of patch size and gp120-CXCR4 co-localization in lovastatin-treated cells ([4]; FIG. 8A): restored; Reversal of lovastatin-induced inhibition of HIV-1 entry [2]: reversed; Reversal of lovastatin effect on p24 production ([11]; co-incubation with lovastatin, R5-infected cultures): reversed; Reversal of lovastatin effect on p24 production ([14]; co-incubation with lovastatin, X4-infected cultures): reversed

Which results are given for MGCGCSSHPEDDISYEL [SEQ. ID. NO: 21]?
Gag processing [15]: severely attenuated; Production of Luc-Ada viral particles [16]: severely diminished

Source: patent US20070082942A1, “Prevention of hiv-1 infection by inhibition of rho-mediated reorganization and/or content alteration of cell membrane raft” (priority 2003, published 2007)
